Experimental data from patent publication US7264808B2, “Synthetic peptide for neurological disorders” (priority 2000, dated 2007).

Experiments:
[1] = test system: NGF, NT-3 and bFGF; conditions: animals; brain areas associated with memory loss; cited from earlier work
[2] = cited from earlier work
[3] = test system: PC12 cells; assay: Neurite outgrowth on PC12 cells; assay type: cell-based, rat; conditions: for Neurites on PC12: concentration producing neurite outgrowth, read after 72 hours
Protocol: The trypsin digested fragments in various concentrations were tested for neurite out growth on PC12 cells. Tissue culture plate having 24 wells were seeded with 10^5 PC12 cells in serum free Dulbeco Modified Eagle's medium (DMEM). The results were read after 72 hours for neurite outgrowth. The fraction showing the most neurite outgrowth at the lowest concentration was sequenced for its amino acids composition. Sequencing was contracted out to the Protein Core Laboratory of Baylor College of Medicine, Houston, Tex.

[4] = test system: Anti-V-NGF; assay: ELISA titer of specimens with Anti-V-NGF; assay type: binding; conditions: in comparison to Anti-H-NGF
Protocol: (§1) Enzyme-Linked Immunosorbent Assay (ELISA): The binding affinity of Anti-ADESH made against ADESH consisting of ten amino acids (AD-10), to various specimens known to contain NGF, such as venoms, body fluids, saliva, serum, urine etc. was studied by ELISA. The ELISA binding of Anti-AD-10 was compared to Anti-NGF made against cobra venom. ELISA tests were performed in 96 well microtiter plate. The wells of the plate were coated with one concentration of antigen, diluted in PBS each well receiving 100 μL. The plate was incubated at room temperature (RT) for 16 to 18 hours after which it was three times (3×) with PBS. The wells of the plate were blocked with 0.25 ml/well of 3% Teleostean gelatin from cold water fish (Sigma) for ½ hour at RT. Anti-AD-10 and Anti-NGFs were diluted threefold in gelatin were added to the appropriate wells of ELISA plate, including positive and negative controls. The plate was incubated at 37° C. for 1 to 1.5 hours. After washing 3X times horseradish peroxidase conjugated with IgG made in goat (Sigma) was added and incubated for 1 hour. Finally, the plate was washed and reacted with O-Phenylenediamine Dihydrochloride (OPD) for color development. The test was after ½ hour for ELISA titers.

[5] = test system: Anti-AD-10; assay: ELISA titer of specimens with Anti-AD-10; assay type: binding, mice; conditions: for ELISA titer Anti-AD-10: Table II, specimen coated
Protocol: Adult Balb/C mice were used for immunization. The mice were used in compliance with the US Public Health Service Policy on humane care and use of animals. First injection consisted of the mixture 100 μg of each version of ADESH in 0.1 ml mixed with equal volume of Freund's complete adjuvant/mouse. The subsequent injections consisted of the mixture 100 μg of ADESH and equal volume of incomplete Freund's adjuvant/mouse. The mice were injected intramuscularly (IM) six times two weeks apart. At the end of the immunization the mice were bled through the ophthalmic veins and serum was separated.
as §1

[6] = test system: PC12 cells; assay: Toxicity to PC12 cells; assay type: cell-based, rat; conditions: toxic concentration on PC12 cells

| Molecule | neurite outgrowth on PC12 cells (in words) [3] | ELISA titer Anti-AD-10 [5] | Toxicity to PC12 [6] [µg] | Neurites on PC12 [3] [µg] | also measured |
| --- | --- | --- | --- | --- | --- |
| O=C(CCn1cnc2c(=O)[nH]cnc21)Nc1ccc(C(=O)[O-])cc1.[K+] [AIT-082] |  |  |  |  | activation of genes producing neurotrophic factors in brain [1]: activate multiple genes in animals to produce three different neurotrophic factors; absorption and activity after oral administration [2]: rapidly absorbed and active after oral administration |
| ADESH: name of the inventive peptides; in b30 the synthetic ADESH consisting of ten amino acids (AD-10) (NLGEHPVCDS) | equally active as the fragment of the native NGF |  |  |  | reaction with Anti-V-NGF (in words) [4]: react poorly |
| H-NGF saliva: NGF of human origin isolated from saliva |  | 2700 |  |  |  |
| H-NGF serum: NGF of human origin isolated from serum |  | 2700 |  |  |  |
| H-NGF urine: NGF of human origin isolated from urine |  | 2700 |  |  |  |
| N L G E H (NLGEH; SYNTHESIZED. CORRESPONDS TO FRAGMENT 7-11 OF SEQ. ID. NO. 1.) [AD-5, ID; NO: 4, first five amino acids] | biologically active in producing neurite outgrowth | 600 | >100 | 2 |  |
| N L G E H P V C D S (NLGEHPVCDS; SYNTHESIZED. SIMILAR TO FRAGMENT 7-16 OF SEQ. ID. NO. 1.) [AD-10] | biologically active in producing neurite outgrowth | 2700 | >100 | 1 |  |
| N L G E H P V C D S T D T W V (NLGEHPVCDSTDTWV; SYNTHESIZED. SIMILAR TO FRAGMENT 7-21 OF SEQ ID NO 1 ABOVE.) [AD-15, ID; NO: 2, first fifteen amino acids] | biologically active in producing neurite outgrowth | 1800 | >100 | 1 |  |
| V-NGF (protein) EDHPVHNLGEHSVCDSVSAWVTKTTATDIKGNTVTVMENVNLDNKVYKEYFFETKCKNPNPEPSGCRGIDSSHWNSYCTETDTFIKALTMEGNQASWRFIRIETACVCVITKKKGN |  | 900 | 5 | 0.005 | reaction with Anti-AD-10 / Anti-ADESH (in words) [5]: react |
